Like-named read-outs stand apart in the source and are kept apart here. A value given as a limit tells only on which side of the number the result lay.

We go through 9 compounds from US7351709B2, “Estrogen receptor ligands” (Wyeth, priority 2004, dated 2008).

The target of assay [1] is T1, ERα (Homo sapiens, UniProt P03372).
T1 construct: expressed in transfected cells; host or cells: HAECT-1 cells infected with Ad5-wt-ER adenovirus
T1 sequence (P03372 1-595): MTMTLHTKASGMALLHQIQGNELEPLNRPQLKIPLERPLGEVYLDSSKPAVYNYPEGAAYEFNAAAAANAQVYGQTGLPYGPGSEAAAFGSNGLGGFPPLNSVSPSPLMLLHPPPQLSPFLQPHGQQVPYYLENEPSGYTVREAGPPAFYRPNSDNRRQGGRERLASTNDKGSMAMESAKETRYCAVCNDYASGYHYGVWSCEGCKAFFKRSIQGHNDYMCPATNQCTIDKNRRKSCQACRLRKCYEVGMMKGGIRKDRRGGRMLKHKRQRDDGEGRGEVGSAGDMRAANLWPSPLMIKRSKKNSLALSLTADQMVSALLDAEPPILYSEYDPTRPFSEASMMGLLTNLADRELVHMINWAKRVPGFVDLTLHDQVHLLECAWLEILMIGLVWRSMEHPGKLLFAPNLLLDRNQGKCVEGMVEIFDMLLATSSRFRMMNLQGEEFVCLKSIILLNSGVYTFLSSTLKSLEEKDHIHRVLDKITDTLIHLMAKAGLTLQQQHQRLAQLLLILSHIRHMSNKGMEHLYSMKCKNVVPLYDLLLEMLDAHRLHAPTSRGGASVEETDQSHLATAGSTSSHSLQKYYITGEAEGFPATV
The assay can be described thus: IL-6 assay: inhibition of IL-1β induced IL-6 expression in ERα infected HAECT-1 cells. The class given is cell-based. As to conditions: for IC50: Ad5-wt-ER infected HAECT-1 cells, IL-1β stimulated, IL-6 by ELISA; for ER/IL-6 % E2: efficacy relative to the maximal inhibition observed with E2. As to the method:
(§1) ERα infected HAECT-1 cells or control cells were thawed, diluted 42× in warm EBM-BSA, plated into 96-well plates at 0.1 ml/well and incubated for 4 h at 34° C. Test compounds were added to the cells as 2× stocks in EBM-BSA containing 2 ng/ml IL-1β (R&D Systems) and plates were returned to the incubator (34° C.). After 15-20 h, 100 μl aliquots of media were removed from the cells and assayed for IL-6 content using a BioSource human IL-6 ELISA Kit. Cells were subsequently washed with 300 μl of Dulbecco's phosphate buffered saline and lysed in 50 μl of Cell Culture Lysis Reagent (Promega). Creatine kinase was determined from the rate of increase in A340 following addition of 100 μl of CK assay reagent (Sigma, cat. No 47-10) to the remainder of the cell lysate.
(§2) For IC50 and EC50 calculations, mean IL-6 or CK values versus log10 of the compound concentration were fitted to a four parameter logistic equation. The IC50/EC50 value, ‘Hill slope’, upper and lower limits of the curve were iteratively estimated.

In assay [2] the target is T1, ERα. The assay can be described thus: Creatine kinase (CK) assay in ERα infected HAECT-1 cells. The class given is cell-based. As to conditions: for ER/CK % E2: efficacy relative to the maximal stimulation observed with E2. As to the method:
as §1, §2

The mark [3] stands for this setting: cells of the EC50 column printed in uM, read-out: ER/CK EC50.
Setting [4] is: Ad5-wt-ER infected HAECT-1 cells, creatine kinase in cell lysate.

Take `CC[C@@H]1C(=O)N(Cc2ccccc2)c2cc(F)ccc2N1C(=O)c1ccc(O)cc1` [Example 2, (3R)-1-Benzyl-3-Ethyl-7-fluoro-4-(4-hydroxybenzoyl)-3,4-dihydroquinoxalin-2(1H)-one]: at ERα [1], the IC50 was 1230 nM and the “ER/IL-6 % E2” value came out at 80 % E2. Besides, the EC50 at ERα [2] (setting [3]) was more than 10 µM. Besides, the “ER/CK % E2” value on ERα [2] is 24 % E2.
`CC[C@@H]1C(=O)N(CC)c2ccc(F)cc2N1C(=O)c1ccc(O)cc1O` [Example 18, (3R)-4-(2,4-Dihydroxybenzoyl)-1,3-diethyl-6-fluoro-3,4-dihydroquinoxalin-2(1H)-one]: at ERα [1], the 50% inhibitory concentration (IC50) amounted to 20 nM and the “ER/IL-6 % E2” value is on record as 96 % E2. On ERα [2] (setting [4]), this compound had an EC50 of 0.169 µM. Also, the “ER/CK % E2” value on ERα [2] is 36 % E2.
On the same counts, the results for `CC[C@@H]1C(=O)N(Cc2ccccc2)c2cc(F)ccc2N1C(=O)c1cccc(O)c1` [Example 5, (3R)-1-Benzyl-3-ethyl-7-fluoro-4-(3-hydroxybenzoyl)-3,4-dihydroquinoxalin-2(1H)-one] are 542 nM, 65 % E2, 0.255 µM and 17 % E2.
On the same counts, the results for `CC[C@@H]1C(=O)N(C)c2cc(F)ccc2N1C(=O)c1ccc(O)cc1` [Example 1, (3R)-3-Ethyl-7-fluoro-4-(4-hydroxybenzoyl)-1-methyl-3,4-dihydroquinoxalin-2(1H)-one] are 74 nM, 99 % E2, 0.089 µM and 16 % E2.
For the compound `CC[C@H]1C(=O)N(CC)c2ccc(F)cc2N1S(=O)(=O)c1ccc(O)cc1` [Example 26, (3S)-1,3-Diethyl-6-fluoro-4-[(4-hydroxyphenyl)sulfonyl]-3,4-dihydroquinoxalin-2(1H)-one], on ERα [1], the IC50 was 339 nM and the “ER/IL-6 % E2” value turned out to be 81 % E2. In addition, on ERα [2] (setting [4]), the “ER/CK EC50 (nM)” value is “inactive”.
On to `CC[C@H]1C(=O)N(CC)c2cc(F)ccc2N1S(=O)(=O)c1ccc(O)cc1` [Example 30, (3S)-1,3-Diethyl-7-fluoro-4-[(4-hydroxyphenyl)sulfonyl]-3,4-dihydroquinoxalin-2(1H)-one], for which, at ERα [1], the IC50 is 738 nM and the “ER/IL-6 % E2” value is 63 % E2. Further, at ERα [2] (setting [4]), the EC50 was determined as 0.043 µM. On ERα [2], the “ER/CK % E2” value is listed as 9 % E2.
`CC[C@H]1C(=O)N(C)c2ccc(F)cc2N1S(=O)(=O)c1ccc(O)cc1` [Example 25, (3S)-3-Ethyl-6-fluoro-4-[(4-hydroxyphenyl)sulfonyl]-1-methyl-3,4-dihydroquinoxalin-2(1H)-one]: on ERα [1], half-maximal inhibition (IC50) required 681 nM and the “ER/IL-6 % E2” value was found to be 108 % E2. Besides, the EC50 at ERα [2] (setting [3]) was more than 3 µM. Further, the “ER/CK % E2” value at ERα [2] is 35 % E2.
In the case of `CC[C@@H]1C(=O)N(CC)c2cc(F)ccc2N1C(=O)c1ccc(O)cc1` [Example 3, (3R)-1,3-Diethyl-7-fluoro-4-(4-hydroxybenzoyl)-3,4-dihydroquinoxalin-2(1H)-one], on ERα [1], inhibition was half-maximal at 72 nM (IC50) and the “ER/IL-6 % E2” value came to 104 % E2. Moreover, the EC50 at ERα [2] (setting [4]) turned out to be 0.103 µM. For the same compound, the “ER/CK % E2” value at ERα [2] is 29 % E2.
For `CC[C@H]1C(=O)N(C)c2cc(F)ccc2N1S(=O)(=O)c1ccc(O)cc1` [Example 29, (3S)-3-Ethyl-7-fluoro-4-[(4-hydroxyphenyl)sulfonyl]-1-methyl-3,4-dihydroquinoxalin-2(1H)-one] the same measures were 1170 nM, 85 % E2, 0.344 µM and 20 % E2.
